Source: patent US20130085161A1, “PIPERIDINYL SUBSTITUTED 1,3-DIHYDRO-BENZOIMIDAZOL-2-YLIDENEAMINE DERIVATIVES” (NOVARTIS AG, priority 2010, published 2013)

Biological target: T1, BaF3-Tel-IGF1-R (Homo sapiens, UniProt P08069)
T1 construct: the kinase domain of IGF-1R (aa 976-1367) linked by a Ser-Arg-linker; expressed in transfected cells; host or cells: BaF3 murine proB-cell lymphoma cells, stably transduced
Assay: BaF3 cell viability assay (resazurin), 384-well format
Type: cell-based
Details: 384-well plate format; 48 h incubation; resazurin dye reduction; cell proliferation/viability
Excerpt: BaF3-Tel-IGF1-R and BaF3-InsR are BaF3 murine proB-cell lymphoma cell derivatives [the BaF3 cell line (also termed Ba/F3) is available from the German Collection of Microorganisms and Cell Cultures (DSMZ), Braunschweig, Germany] that have been rendered IL-3-independent by stable transduction with kinase-activating fusions between human TEL (aa 1-452) and the kinase domain of IGF-1R (aa 976-1367) linked by a Ser-Arg-linker (Boulay et al, Cancer Res 68, 3743-3751, 2008), and a fusion between human TEL (aa 1-337) and the kinase domain (aa 1015-1382) of the Insulin receptor (Melnick J S et al, Proc Natl Acad Sci USA 103, 3153-3158, 2006), respectively. Cells are cultured in RPMI-1640 (Animed #1-14F01-1) supplemented with 2% L-glutamine (Animed #5-10K50-H) and 10% fetal calf serum (FCS, Animed #2-01F16-I). Wild-type, untransfected BaF3 cells are maintained in above medium plus 10 U/ml IL-3 (mouse Interleukin-3, Roche #1380745 or Invitrogen # PMC0035) and are used to identify non-selective, generally growth-inhibitory compounds. Cells (1.5×10^4 cells per well) are seeded in 190 μl fresh medium into 96-well plates. 10 μl 20× compound solutions are added. As internal control, the kinase inhibitor PKC412 is routinely used. Control cells treated with DMSO (0.1% final concentration) serve as growth reference (set as 100% growth). In addition, a plate blank value is routinely determined in a well containing only […] of medium and no cells. IC50 determinations are performed based on eight 3-fold serial dilutions of the test compound, starting at 10 μM. Following incubation of the cells for 48 h at 37° C. and 5% CO2, the effect of inhibitors on cell viability is assessed by the resazurin sodium salt dye reduction assay (commercially known as AlamarBlue assay) basically as previously described (O'Brien J. et al., Eur. J. Biochem. 267: 5421-5426, 2000). Briefly, 20 μl dye solution is added per well and the plates incubated for 6 h at 37° C. and 5% CO2. Thereafter, fluorescence is measured using a Saphirell 96-well plate reader (TECAN, Männedorf, Switzerland) with the following settings: Excitation 544 nm and Emission 590 nm. For data analysis, the plate blank value is subtracted from all data points. The effect of a particular test compound concentration on cell proliferation and viability is expressed as percentage of the blank-corrected reading obtained for cells treated with vehicle only, which is set as 100%. IC50 values can be determined using XLfit (V4.2), applying standard four parameter logistic model #205 (IDBS, Guilford, UK) or other common curve-fitting software.
To achieve a higher throughput, the cell viability assay can also be performed in a 384-well format. Briefly, 4′500 freshly diluted cells are seeded in 54 μl/well into 384-well plates using a liquid dispenser. 6 μl 10× compound solution is added to the cell plate. As internal control, the kinase inhibitor PKC412 is routinely used. Control cells treated with DMSO (0.1% final concentration) serve as growth reference (set as 100% growth). In addition, a plate blank value is routinely determined in a well containing only 60 μl of medium and no cells. Dose-response effects are determined by 3-fold serial compound dilutions, starting at 10 μM. Following incubation of the cells for 48 h at 37° C. and 5% CO2, the effect of compounds on cell proliferation/viability is assessed by addition of 6 μl resazurin sodium salt dye solution per well. Following incubation for an additional 6 hrs at 37° C. and 5% CO2, fluorescence is measured using an Infiniti M1000 microplate reader (TECAN, Männedorf, Switzerland) with excitation and emission wavelengths set at 544 and 590 nm, respectively. For data analysis, the plate blank value is subtracted from all data points. IC50 values can be determined by four parameter logistic fitting as described above.

T1 sequence (P08069 976-1367): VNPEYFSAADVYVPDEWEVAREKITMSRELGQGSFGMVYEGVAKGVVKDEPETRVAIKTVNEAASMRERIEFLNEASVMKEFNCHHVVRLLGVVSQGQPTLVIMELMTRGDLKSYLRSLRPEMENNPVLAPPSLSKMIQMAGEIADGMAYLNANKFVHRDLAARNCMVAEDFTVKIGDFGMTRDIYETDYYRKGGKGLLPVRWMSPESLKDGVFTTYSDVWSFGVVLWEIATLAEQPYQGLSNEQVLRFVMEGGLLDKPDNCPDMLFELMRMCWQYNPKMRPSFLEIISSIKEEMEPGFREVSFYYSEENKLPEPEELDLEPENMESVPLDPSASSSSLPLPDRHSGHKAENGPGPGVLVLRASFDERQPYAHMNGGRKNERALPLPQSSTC

SMILES	IC50
COc1ccc(NC(C)=O)c(N2CCC(n3c(=N)n(Cc4cccc5[nH]ccc45)c4ccc(F)cc43)CC2)c1 [Example 56.13, N-(2-{4-[6-Fluoro-2-imino-3-(1H-indol-4-ylmethyl)-2,3-dihydro-benzoimidazol-1-yl]-piperidin-1-yl}-4-methoxy-phenyl)-acetamide]	9 nM
CC(=O)Nc1ccc(C(F)(F)F)cc1N1CCC(n2c(=N)n(Cc3cccc4[nH]nnc34)c3ccc(F)cc32)CC1 [Example 56.14, N-(2-{4-[3-(1H-Benzotriazol-4-ylmethyl)-6-fluoro-2-imino-2,3-dihydro-benzoimidazol-1-yl]-piperidin-1-yl}-4-trifluoromethyl-phenyl)-acetamide]	23 nM
CC(=O)Nc1ccc(C)cc1N1CCC(n2c(=N)n(Cc3cccc4[nH]ccc34)c3ccc(F)cc32)CC1 [Example 56.15, N-(2-{4-[6-Fluoro-2-imino-3-(1H-indol-4-ylmethyl)-2,3-dihydro-benzoimidazol-1-yl]-piperidin-1-yl}-4-methyl-phenyl)-acetamide]	41 nM
CC(=O)Nc1ccc(C(F)(F)F)cc1N1CCC(n2c(=N)n(Cc3cccc4[nH]ccc34)c3ccc(F)cc32)CC1 [Example 56.16, N-(2-{4-[6-Fluoro-2-imino-3-(1H-indol-4-ylmethyl)-2,3-dihydro-benzoimidazol-1-yl]-piperidin-1-yl}-4-trifluoromethyl-phenyl)-acetamide]	39 nM
CC(=O)Nc1ccc(C(F)(F)F)cc1N1CCC(n2c(=N)n(Cc3ccccc3Cl)c3ccc(F)cc32)CC1 [Example 56.17, N-(2-{4-[3-(2-Chloro-benzyl)-6-fluoro-2-imino-2,3-dihydro-benzoimidazol-1-yl]-piperidin-1-yl}-4-trifluoromethyl-phenyl)-acetamide]	38 nM
CC(=O)Nc1ccccc1N1CCC(n2c(=N)n(Cc3ccccc3Cl)c3ccc(F)cc32)CC1 [Example 56.18, N-(2-{4-[3-(2-Chloro-benzyl)-6-fluoro-2-imino-2,3-dihydro-benzoimidazol-1-yl]-piperidin-1-yl}-phenyl)-acetamide]	119 nM
CC(=O)Nc1ccccc1N1CCC(n2c(=N)n(Cc3cccc4[nH]ccc34)c3ccc(F)cc32)CC1 [Example 56.19, N-(2-{4-[6-Fluoro-2-imino-3-(1H-indol-4-ylmethyl)-2,3-dihydro-benzoimidazol-1-yl]-piperidin-1-yl}-phenyl)-acetamide]	382 nM
CC(=O)Nc1ccc(Cl)cc1N1CCC(n2c(=N)n(Cc3cccc4[nH]ccc34)c3ccccc32)CC1 [Example 57]	15 nM
CC(=O)Nc1ccc(Cl)cc1N1CCC(n2c(=N)n(Cc3ccccc3Cl)c3ccccc32)CC1 [Example 58, N-(4-Chloro-2-{4-[3-(2-chloro-benzyl)-2-imino-2,3-dihydro-benzoimidazol-1-yl]-piperidin-1-yl}-phenyl)-acetamide]	37 nM
CC(=O)/N=c1\n(Cc2ccccc2Cl)c2ccccc2n1C1CCN(c2cc(Cl)ccc2NC(C)=O)CC1 [Example 59, N-(2-{4-[2-Acetylimino-3-(2-chloro-benzyl)-2,3-dihydro-benzoimidazol-1-yl]-piperidin-1-yl}-4-chloro-phenyl)-acetamide]	407 nM
CC(=O)Nc1ccc(Cl)cc1N1CCC(n2c(=N)n(Cc3cccc4[nH]nnc34)c3ccccc32)CC1 [Example 60, N-(2-{4-[3-(1H-Benzotriazol-4-ylmethyl)-2-imino-2,3-dihydro-benzoimidazol-1-yl]-piperidin-1-yl}-4-chloro-phenyl)-acetamide]	64 nM
CC(=O)Nc1ccc(Cl)cc1N1CCC(n2c(=N)n(Cc3cccc4[nH]ccc34)c3ccc(F)cc32)CC1 [Example 61, N-(4-Chloro-2-{4-[6-fluoro-2-imino-3-(1H-indol-4-ylmethyl)-2,3-dihydro-benzoimidazol-1-yl]-piperidin-1-yl}-phenyl)-acetamide]	8 nM
